Laboratory results: PMC13489962, “Small-molecule modulation of β-arrestins” (Nature, 2026)
Entries after “also recorded” stand apart in the source; their conditions may differ.

What was measured:
[1] = molecular target: T1, βARR2 (Rattus norvegicus, UniProt P29067); test: ITC binding to βARR2; settings: for stoichiometry N, βARR2 / Kd: ITC; for Kd: 25 °C, one-site model; for β-arrestin isoform preference: from ITC
T1 construct: βARR1 or βARR2 construct, with their C terminus truncated (at amino acid 393 or 394, respectively); GST (pGEX4T1) (N, cleaved yes); made in house; host or cells: E. coli BL21 (DE3) pLysS
Experimental: The expression and purification of β-arrestins have been described previously[44],[62]–[64]. In brief, E. coli BL21 (DE3) pLysS cells (New England Biolabs: C2527I) carrying pGEX4T1-Rattus norvegicus βARR1 or βARR2 construct, with their C terminus truncated (at amino acid 393 or 394, respectively), were cultured in Terrific Broth (Teknova) medium at 37 °C. After OD600 reached 0.6–0.8, the cells were induced with 0.1 mM isopropyl-β-D-thiogalactopyranoside (IPTG) at 18 °C overnight. Bacteria were collected by centrifugation (4,000 rpm), and cell pellets were resuspended in lysis buffer (20 mM HEPES, pH 8, 150 mM NaCl, 10% glycerol, 1 mM EDTA, 0.2 mM dithiothreitol (DTT), 1 mM phenylmethylsulfonyl fluoride, and 1 mM benzamidine) at 4 °C for 1 h. Cell suspensions were sonicated, centrifuged (14,000 rpm, 30 min, 4 °C), and the supernatant was loaded onto pre-equilibrated glutathione–agarose resin (GoldBio). After 3 h of binding at 4 °C, the beads were washed, and thrombin was added for overnight cleavage. The proteins were further purified by anion exchange chromatography followed by size-exclusion chromatography using a Superdex 200 Increase 10/300 GL column on an ÄKTA FPLC system (GE Healthcare). Eluted fractions were analysed by SDS–PAGE, pooled, concentrated using 30 kDa MWCO Amicon Ultra-15 Centrifugal Filter devices, flash-frozen in liquid nitrogen, and stored in aliquots at −80 °C. The same rat βARR1 constructs with mutations (L129A, L129S, L129G, P131A, P133A, E134A, D135A, K138A, C140A, Y249A, C251A, E283A, K284A and R285A) were generated and purified in a similar manner. Recombinant Gα subunits (Gαs, Gαq and Gαi) were purified as GST fusion proteins using glutathione–agarose affinity chromatography as previously described. The heterotrimeric Gs protein complex, composed of Gαs, Gβ1 and Gγ2 subunits, was expressed in Sf9 cells using the baculovirus expression system and purified as previously described. M2R expression, purification and reconstitution into high-density lipoprotein (HDL) particles were performed as previously described. ERK2, SRC, p38α and JNK3 kinases were expressed and purified using previously established protocols[6],[16]. Protein concentrations for each protein were determined by ultraviolet absorption at 280 nm and extinction coefficients estimated using the ExPASy ProtParam tool[67].
ITC measurements were performed on a MicroCal iTC200 system at 25 °C. Prior to ITC experiments, all proteins (βARR1, βARR2 or βARR1 mutants) were extensively dialysed against 20 mM HEPES (pH 7.4), 100 mM NaCl, and 3 μM TCEP. Protein concentrations were determined by spectrophotometry at 280 nm, using extinction coefficients calculated from each protein sequence via the ProtParam program. The dialysis buffer was used to dilute DMSO stock solutions of β-arrestin small-molecule modulators to their final concentrations for measurements. For each ITC experiment, β-arrestin modulators (Cmpd-5 at 350 μM, Cmpd-46 at 450 μM, and Cmpd-64 at 450 μM) were loaded into the syringe and titrated into the calorimetric cell containing βARR1, βARR1 mutants or βARR2 (at about 30–40 μM, depending on the protein and experiment). Additional ITC experiments were also performed using purified GST-fused Gα subunits (Gαs, Gαq and Gαi; about 30 μM) and Gαiβγ heterotrimer (about 30 μM). Gα subunits were prepared in the same buffer (20 mM HEPES, pH 7.4, 100 mM NaCl, 3 μM TCEP), whereas the Gαiβγ heterotrimer was maintained in buffer supplemented with 0.05% DDM and 10 μM GDP, with matched DMSO carrier conditions. Modulators (300 μM) or corresponding DMSO controls were loaded and titrated as described above. The reference cell was filled with distilled water. In all experiments, the titration sequence typically consisted of an initial 0.4 μl injection, followed by 19 injections of 2 μl each, with a 180-s interval between injections to allow thermal power to return to baseline. […]

[2] = tested on: β-arrestin-dependent ERK1/2 activation downstream of β2AR; test: Carvedilol-stimulated ERK1/2 phosphorylation in β2AR HEK293 cells; type: cell-based; settings: 30 μM; carvedilol 10 μM, 5 min
Experimental: To evaluate the effect of small-molecule modulators on β-arrestin-dependent ERK1/2 signalling, HEK293 cells stably expressing β2AR were serum-starved for 6 h (refs. [34],[75]), then pretreated with β-arrestin modulators (30 μM) or vehicle for 20 min at 37 °C. Cells were subsequently stimulated with carvedilol (10 μM, 5 min), a β-arrestin-biased agonist known to promote ERK1/2 phosphorylation via β-arrestin scaffolding of RAF–MEK–ERK signalling components. Cells were lysed, sonicated (15 s), and centrifuged at 14,000g for 15 min at 4 °C. Equal amounts of total protein were resolved by SDS–PAGE on 4–20% Tris-Glycine gels (Thermo Fisher Scientific), transferred to nitrocellulose or PVDF membranes, and immunoblotted with anti–phospho-ERK1/2 (1:2,000; Cell Signaling) and total ERK1/2 (1:10,000; Millipore Sigma). HRP-conjugated secondary antibodies were used for detection. Protein bands were visualized using Pierce SuperSignal West Pico ECL substrate (Thermo Fisher Scientific), imaged on a ChemiDoc XRS system (Bio-Rad) and quantified by densitometry using ImageLab (Bio-Rad). Data were analysed using GraphPad Prism.

T1 sequence (P29067 1-394): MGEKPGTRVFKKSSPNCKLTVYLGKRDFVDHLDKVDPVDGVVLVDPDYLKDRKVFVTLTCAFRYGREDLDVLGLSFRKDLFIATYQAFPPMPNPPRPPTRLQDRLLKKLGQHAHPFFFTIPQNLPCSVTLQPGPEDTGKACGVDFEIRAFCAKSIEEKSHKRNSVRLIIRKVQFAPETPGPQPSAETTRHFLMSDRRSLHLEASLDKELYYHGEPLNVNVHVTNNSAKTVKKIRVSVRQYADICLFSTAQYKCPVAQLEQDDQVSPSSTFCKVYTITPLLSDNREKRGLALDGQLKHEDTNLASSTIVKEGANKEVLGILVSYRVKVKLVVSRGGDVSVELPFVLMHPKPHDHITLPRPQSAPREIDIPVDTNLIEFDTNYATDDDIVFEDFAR

C=C1C(=O)[C@]23[C@H](O)[C@H]1CC[C@H]2[C@@]12CO[C@]3(O)[C@@H](O)[C@@H]1C(C)(C)CC[C@@H]2O [Cmpd-5, (1S,4aR,5S,6S,6aR,9S,11aS,11bS,14R)-1,5,6,14-tetrahydroxy−4,4-dimethyl-8-methylenedecahydro-1H-6,11b-(epoxymethano)-6a,9-methanocyclohepta[a]naphthalen-7(8H)-one]
stoichiometry N, βARR2 [1]: 0.84 | Kd [1]: 0.563 ± 0.045 µM | β-arrestin isoform preference [1]: bound both isoforms comparably; also recorded: bound each isoform similarly | effect on β-arrestin-dependent ERK1/2 activation [2]: significantly attenuated; also recorded: attenuate

C=C1C(=O)OC2CC3(C)OC3CCC(C)=CC(OC(C)=O)C12 (centres unmarked) [Cmpd-64, (Z)-4,10a-dimethyl-7-methylene-8-oxo-1a,2,3,6,6a,7,8,9a,10,10a decahydrooxireno[2’,3’:8,9]cyclodeca[1,2-b]furan-6-yl acetate]
stoichiometry N, βARR2 [1]: 0.91 | Kd [1]: 0.207 ± 0.054 µM | effect on β-arrestin-dependent ERK1/2 activation [2]: significantly attenuated; also recorded: attenuate

C=C1C(=O)C2=CC1CCC(=O)C1(C)CCC(OCC)C(C)(C)C1CC2O (centres unmarked) [Cmpd-46, (Z)-3-ethoxy-6-hydroxy-4,4,13a-trimethyl-9-methylene-1,2,3,4,4a,5,6,9,10,11,12,13a-dodecahydro-7,10-(metheno)benzo[11]annulene-8,13-dione]
stoichiometry N, βARR2 [1]: 0.94 | Kd [1]: 0.753 ± 0.054 µM | β-arrestin isoform preference [1]: slight βarr2 preference; also recorded: modest βARR2 preference | effect on β-arrestin-dependent ERK1/2 activation [2]: significantly attenuated; also recorded: attenuate
